From patent US20230061352A1, “DRUG DELIVERY DEVICE” (priority 2020, published 2023)
Entries after “also recorded” stand apart in the source; their conditions may differ.

How the values were obtained:
[1] = Qualitative sample analysis (Q1 test) of released drug by LCMS; assay type: physicochemical; conditions: drug released from the device; chromatograms, FIGS. 7 and 8
Procedure: Qualitative sample analysis (or Q1 test) was performed on select samples to assure single spikes were detected at frequencies consistent with calibration curves and that no secondary spikes were detected (indicating LCMS detection of single molecules without breakdown products).

[2] = LCMS drug levels in porcine lymph tissue from the anterior jugular chain; assay type: in vivo, pig; conditions: released from implanted device; necropsy at 0, 48, 120, 240 and 336 hrs; FIGS. 12 and 13
Description: (§1) Devices produced in accordance with the methods of EXAMPLE 1 were implanted into tonsillectomized pigs.
(§2) The specific LCMS method used for detection of Bupivacaine and Lidocaine has been validated in work by Hoizey et al (2005) (Hoizey G, et al. Sensitive bioassay of bupivacaine in human plasma by liquid-chromatography-ion trap mass spectrometry. Journal of pharmaceutical and biomedical analysis. 2005; 39:587-92).
(§3) The specific LCMS method used for detection of Bupivacaine and Lidocaine has been validated in work by Hoizey et al (2005).

[3] = LCMS drug levels in porcine serum from the internal jugular vein; assay type: in vivo, pig; conditions: released from implanted device; 0, 1, 2, 4, 24, 48, 72, 120, 240, 336 hrs; FIGS. 14 and 15
Description: as §1, §2, §3

Row | drug level detected in serum (systemic uptake) [3] | SMILES | integrity of the released drug molecule (no breakdown products) [1] | drug level detected in locoregional (lymph) tissue [2]
1 | < 4 microgram per ml | CCCCN1CCCCC1C(=O)Nc1c(C)cccc1C (centres unmarked) [bupivacaine] | active form is preserved; also recorded: complete, intact bupivacaine molecule | < 4 microgram per ml
2 | – | CCN(CC)CC(=O)Nc1c(C)cccc1C [lignocaine] | active form is preserved; also recorded: complete, intact lignocaine molecule | < 5.6 microgram per ml
